Source: patent US20250327074A1 (SHAOXING INSTITUTE, ZHEJIANG UNIVERSITY, priority 2024, published 2025)

Assays:
Format in all cases: cell-based
[1] = system: rare codon in EGFP reporter, HEK293T cells; assay: LC-MS recoding efficiency of rare codons in EGFP reporter
Description: (§1) The recoding translation system and the rare codon-bearing POI were co-transfected into HEK293T cells. Then, two methods were used to calculate the ncAA recoding rate: 1) LC-MS analysis: the protein of the POI mixture, including the fraction incorporated with ncAA and the fraction with NAA at rare codons, was purified by Ni2+-NTA beads and subjected to LC-MS analysis. The ncAA recoding rate was determined by the intensity of two fractions quantified by LC-MS. 2) TCO-PEG5000 mass tag labeling analysis: this method was suitable for quantifying the TetBu recoding rate in this work. When the protein mixture was incubated with TCO-PEG5000 mass tag, the protein incorporated with TetBu would be labeled by this mass tag and migrated much slower in SDS-PAGE.
(§2) When the recoding system (TetRS/PylTyyy) is co-expressed with a target protein carrying the recoding codon in HEK293T, the recoding codon can be translated into a natural amino acid by endogenous tRNA (Dec-tRNA), or recoding into TetBu by the engineered tRNA (Rec-tRNA), producing a mixture of protein byproducts (with a single-site mutation) and the target protein containing TetBu. Based on this, two methods were established to assess sense codon recoding efficiency: a) Liquid chromatography-mass spectrometry (LC-MS) for differentiates proteins based on molecular weight differences, and b) TCO-PEG5000 macromolecular label target proteins containing TetBu, which increases their molecular weight by 5 kDa. The shift in protein bands is detected via immunoblotting (FIG. 2).
(1) Transfection: Plasmids encoding the TetBu/PylTyyy recoding system (where xxx represents different codons and yyy represents different anticodons) were co-transfected with the plasmid mCherry-T2A-EGFP^N149XXX-6×His at a 1:1 (g:g) ratio. For a 10 cm dish, the total transfection mixture contained 20 μg DNA+[…] Lipofectamine 2000+2 mL Opti-MEM.
(2) Protein expression and purification: After 6 hours, the medium was replaced with fresh DMEM containing 200 μM TetBu for 40 hours to induce protein expression. Cells were lysed in 1 mL Modified RIPA Buffer, and the supernatant was purified using Ni-NTA beads.
(3) LC-MS analysis of recoding efficiency:Using a Waters Xevo G2-XS TOF Mass Spectrometer, the recoding efficiency of rare codons (CTA, GTA, CGT, CCG, GCG, ACG, and TCG) at the EGFP149 site was evaluated.
(2) Cell transfection and protein expression purification: HEK293T cells were seeded in 10 cm culture dishes and transfected at 60-70% confluency. For each transfection, […] of plasmid carrying mCherry-T2A-EGFPY151TCG-6×His was co-transfected with one of the following recoding system plasmids: chPhe_AcFRS/12×(U6-chPheTCGA), EcTyr_OmeYRS/12×(U6-EcTyrTCGA), or EcLeu_OmeYRS/12×(U6-EcLeuTCGA). After 6 hours, the medium was replaced with serine/glycine-free DMEM/F12 containing 500 μM of the respective unnatural amino acid. Following protein expression and purification, LC-MS was used to determine TCG recoding efficiency at position 151 of EGFP. Detailed transfection and purification protocols following section 2.2.1.2, with cell culture conditions in serine-free medium as described in Example 2.

[2] = system: FLucY255ACG/K529TCG mutant; assay: FLuc dual caged UAA decaging luminescence assay; settings: dual incorporation of ONBY with TCOK/PABK
Description: To established a method for orthogonal activation control of proteins, two caged UAAs are incorporated site-specifically into the active pocket or adjacent sites of target proteins through the dual rare codon recoding strategy, wherein steric hindrance leads to the protein inactivation, followed by protein activation through photochemical or chemical decaging strategies. The TCG/ACG dual recoding system decodes TCG/ACG sites as serine/threonine in the absence of UAAs. During the screening of FLuc, the K529 and Y255 site are identified with minimal background upon serine incorporation and threonine incorporation respectively, which were subsequently used for dual caged UAA incorporation. Using the FLucY255ACG/K529TCG mutant as an example, the TCG recoding system decoding ONBY, the ACG recoding system decoding TCOK/PABK, and reporter genes were co-transfected into cells, followed by luminescence assay to evaluate protein activation.

EGFP F84TCG mutant = assay: EGFP F84TCG fluorescence activation by UAA
Description: Using EGFP as an example, this example describes a general method for screening recoding sites and UAA types in protein activation regulated by UAA incorporation. In the absence of UAAs, the TCG recoding system decodes the TCG codon as serine (Ser). To maximize disruption towards protein function, we screened phenylalanine (Phe), tyrosine (Tyr), and tryptophan (Trp)—amino acids with the greatest structural divergence from Ser for potential incorporation. Following identification of Ser-substituted inactivation sites, we screened UAAs capable of rescuing protein activity, yielding optimal recoding system/UAA pairs (a-b of FIG. 22). […] This strategy was successfully extended to diverse proteins including fluorescent proteins (e.g., mCherry), enzymes (e.g., luciferase, kinases, peroxidases), and translation regulators (e.g., initiation factors, post-translational modification readers).

[3] = system: IL-1B, IL-2, IL-4, IL-6 bearing TCG codon, HEK293T cells; assay: TCO-PEG5000 mass tag labeling recoding efficiency in interleukin proteins; settings: TetRS/PylTCGA, 200 μM TetBu, serine/glycine-free
Description: as §1, §2
The recoding system and plasmids containing the TCG codon for the cytokines were co-transfected into HEK293T cells. Six hours post-transfection, the medium was replaced with serine/glycine-free DMEM/F12 medium supplemented with 200 μM TetBu. After 40 hours of protein expression, 500 μL of Modified RIPA lysis buffer was added to each well to lyse the cells. The TCO-PEG5000 labeling method was used to assess the recoding efficiency.

HEK293T cells proteome = assay: Proteome background incorporation, TCO-biotin streptavidin dot blot; settings: CTA and TCG codon groups among 7 rare codons; 200 μM TetBu
Description: When the TetRS/PylTyyy recoding system is expressed in HEK293T, it recodes endogenous genomic codons into TetBu, generating a modified proteome containing TetBu. The IEDDA reaction between TetBu and trans-cyclooctene (TCO) enables biotinylation of TetBu-containing proteins via TCO-Biotin. Streptavidin dot blot detects biotin signals, where signal intensity correlates with TetBu incorporation levels (FIG. 3, right).
1.3.2 Screening of Rare Codons with Low Background Incorporation • (1) Intracellular expression of the recoding system: Plasmids encoding TetBu/PylTyyy (yyy=anticodons for TCG, ACG, GCG, CCG, CGT, GTA, CTA) were transfected using Lipofectamine 2000. After 6 hours, cells were treated with fresh DMEM±200 μM TetBu for 40 hours. Cells were lysed in 100 μL Modified RIPA Buffer to obtain whole-cell lysates.
The reaction system was prepared as described in Table 3. Reaction products were mixed with 7 μL bromophenol blue-free 4×SDS loading buffer, boiled at 100° C. for 10 min, and analyzed via streptavidin dot blot.
Samples were spotted onto a nitrocellulose membrane and air-dried at room temperature for 15 min. The membrane was washed with 10 mL TBST (80 rpm, 5 min) three times, discarding the supernatant each time. Blocking was performed with 10 mL TBST containing 5% non-fat milk for 1 h, followed by three additional TBST washes (10 mL, 80 rpm, 5 min each). […]

[4] = system: Ser-tRNACGA knockout HEK293T cell lines 1A8, 2A3, 3A12, 4C23; assay: LC-MS TCG recoding efficiency in Ser-tRNACGA knockout cell lines; settings: for efficiency in recoding TCG codon at position 151 of EGFP: single-copy recoding tRNA
Description: Four sgRNAs targeting Ser-tRNACGA were designed (Table 6). CRISPR/Cas9 was used to generate knockout polyclonal populations, followed by FACS sorting to isolate monoclonal lines. Sequencing confirmed successful editing in four knockout strains: 1A8, 2A3, 3A12, and 4C23 (FIG. 6).
This example evaluates the TCG codon recoding capability of the knockout cell lines using the TetRS/PylTCGA recoding system as a model.

[5] = system: TCG codon, mammalian cells; assay: TCG codon recoding efficiency of all amino acids (Table 1); settings: TCG codon recoding of the unnatural amino acid with the aaRS and mutation of the same table line
[6] = TCG at position 151 of EGFP, 12× tRNA, serine/glycine-free medium, 500 μM unnatural amino acid

CC(=O)NCCCC[C@H](N)C(=O)O [AcK]
recoding efficiency [1, 6]: 78%

CC(C)(C)OC(=O)NCCCC[C@H](N)C(=O)O [BocK, ε-N-tert-butyloxycarbonyllysine]
recoding efficiency [1, 6]: 82%

CCCC(=O)NCCCC[C@H](N)C(=O)O [Kbu]
recoding efficiency [1, 6]: 74%

C/C=C/C(=O)NCCCC[C@H](N)C(=O)O [Kcr, ε-N-crotonyl-lysine]
recoding efficiency [1, 6]: 84%

CCC(=O)NCCCC[C@H](N)C(=O)O [Kpr]
recoding efficiency [1, 6]: 79%

N[C@@H](Cc1ccc(OCc2ccccc2[N+](=O)[O-])cc1)C(=O)O [ONBY]
FLuc activity in the presence of both caged UAAs, before decaging [2]: nearly complete inactivation

COc1ccc(C[C@H](N)C(=O)O)cc1 [OmeY, O-methyl-tyrosine]
concentration with detectable EGFP activation (EGFP F84TCG mutant): 0.00001 mM | time to fluorescence activation after UAA delivery (EGFP F84TCG mutant): ≤ 1 min | fluorescence enhancement upon UAA addition versus no UAA (EGFP F84TCG mutant; TCG-recoding system decoding OmeY): > 100 fold

[N-]=[N+]=Nc1ccc(COC(=O)NCCCC[C@H](N)C(=O)O)cc1 [PABK]
FLuc activity in the presence of both caged UAAs, before decaging [2]: nearly complete inactivation

N[C@@H](CCCCNC(=O)OC1/C=C/CCCCC1)C(=O)O (some centres unmarked) [TCOK]
FLuc activity in the presence of both caged UAAs, before decaging [2]: nearly complete inactivation

CCCCc1nnc(-c2cccc(C[C@H](N)C(=O)O)c2)nn1 [TetBu, (S)-2-amino-3-(3-(6-butyl-1,2,4,5-tetrazin-3-yl)phenyl)propanoic acid]
recoding efficiency ([1]; ACG codon at EGFP149 site, TetRS/PylTyyy, 200 μM TetBu, HEK293T): 7.1% | recoding efficiency ([1]; TCG codon at EGFP149 site, TetRS/PylTyyy, 200 μM TetBu, HEK293T): 8.5% | TetBu recoding efficiency ([3]; position 62 of IL-2): 80.8% | TetBu recoding efficiency ([3]; position 87 of IL-6): 83.9% | TetBu recoding efficiency ([3]; position 121 of IL-4): 99.3% | TetBu recoding efficiency ([3]; position 205 of IL-1B): 78.10% | proteome-wide background TetBu incorporation (biotin signal intensity) (HEK293T cells proteome): lowest biotin signal intensity | efficiency in recoding TCG codon at position 151 of EGFP ([4]; knockout cell line 1A8): 61% | efficiency in recoding TCG codon at position 151 of EGFP ([4]; knockout cell line 2A3): 51% | efficiency in recoding TCG codon at position 151 of EGFP ([4]; knockout cell line 3A12): 58% | efficiency in recoding TCG codon at position 151 of EGFP ([4]; knockout cell line 4C23): 68% | improvement of TCG recoding compared to HEK293T cells ([4]; strain 4C23): 1.4 fold

Nc1ccc2[nH]cc(C[C@H](N)C(=O)O)c2c1 [compound 417]
Recoding rate (%) ([5]; class symbols): + (“+” indicates a recoding efficiency greater than 40%)

N[C@@H](Cc1c[nH]c2cccc(F)c12)C(=O)O [compound 418]
Recoding rate (%) ([5]; numeric values): 82%

N[C@@H](Cc1ccc(OS(=O)(=O)O)cc1)C(=O)O [sTyr]
recoding efficiency [1, 6]: 85%
